Data taken from PMC5062570 (Nature Communications, 2016).
“Also recorded” adds a separate entry of the source. Read-outs that look alike come from different tables or passages of the source. Each block holds one compound with its values, some of them ahead of it.

What was measured:
[1] = target: T1, BACE1 (Homo sapiens, UniProt P56817); test: BACE1 purified enzyme fluorescence polarization assay; type: biochemical; design: His (C); made in house; host or cells: CHO-K1
Experimental: (§1) Purified enzyme inhibition of BACE1, BACE2, CatD and CatE was determined using fluorescence polarization (FP) assays. Briefly, purified enzymes were treated with test compounds (1% DMSO, 37 °C) in the presence of synthetic peptide substrates (150 nM) in 30 μl total volume of NaOAc buffer (100 mM, pH 4.5, 0.0001% Tween-20) in a 384-well plate. After incubation, reactions were stopped and substrate captured by the addition of 1.5 μM streptavidin, and FP measured with an EnVision plate reader (PerkinElmer, excitation 485 nm, emission 530 nm). […] BACE2 activity was assessed with 0.5 nM recombinant BACE2 (R&D Systems 4097-AS) and the same synthetic substrate used for BACE1, with a 1 h incubation time. […] CatE activity was assessed with 1.0 nM recombinant CatE (Creative BioMart CTSE-255H) and the same synthetic substrate used for CatD, with a 1.5 h incubation time.
Target sequence in this assay (P56817 46-457): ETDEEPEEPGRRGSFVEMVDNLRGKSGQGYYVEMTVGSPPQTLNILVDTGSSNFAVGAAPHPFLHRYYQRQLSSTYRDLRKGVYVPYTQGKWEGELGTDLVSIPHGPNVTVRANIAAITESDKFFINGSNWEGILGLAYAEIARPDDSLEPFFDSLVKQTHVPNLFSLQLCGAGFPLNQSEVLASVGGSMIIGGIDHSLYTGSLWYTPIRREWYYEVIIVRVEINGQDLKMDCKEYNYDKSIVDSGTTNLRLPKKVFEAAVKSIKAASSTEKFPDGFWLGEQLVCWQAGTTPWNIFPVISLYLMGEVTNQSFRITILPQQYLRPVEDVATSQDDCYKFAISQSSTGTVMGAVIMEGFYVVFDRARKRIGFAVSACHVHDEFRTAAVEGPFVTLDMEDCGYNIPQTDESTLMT

[2] = target: T2, BACE2 (Homo sapiens, UniProt Q9Y5Z0); test: BACE2 purified enzyme fluorescence polarization assay; type: biochemical
T2 construct: purchased R&D Systems 4097-AS
T2 sequence (Q9Y5Z0 63-518): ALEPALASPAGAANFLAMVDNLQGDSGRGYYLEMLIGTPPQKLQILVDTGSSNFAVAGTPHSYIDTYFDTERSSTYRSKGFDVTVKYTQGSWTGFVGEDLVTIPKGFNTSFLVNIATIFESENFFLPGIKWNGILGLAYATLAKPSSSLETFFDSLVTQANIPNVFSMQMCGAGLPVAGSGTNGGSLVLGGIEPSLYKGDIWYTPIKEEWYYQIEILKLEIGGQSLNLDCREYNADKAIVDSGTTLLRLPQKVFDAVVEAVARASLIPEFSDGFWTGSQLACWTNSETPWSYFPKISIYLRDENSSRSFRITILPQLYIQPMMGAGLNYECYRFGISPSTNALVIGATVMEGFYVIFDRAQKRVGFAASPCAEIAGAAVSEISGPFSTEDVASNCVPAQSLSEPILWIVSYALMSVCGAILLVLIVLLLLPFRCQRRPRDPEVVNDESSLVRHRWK
Experimental: as §1

[3] = target: T3, CatD (Homo sapiens, UniProt P07339); test: CatD purified enzyme fluorescence polarization assay; type: biochemical; design: final maturation into a non-covalently associated heavy chain and light chain; purchased Sigma C8696; host or cells: human liver
Experimental: as §1
Target sequence in this assay (P07339 65-162 limits assumed): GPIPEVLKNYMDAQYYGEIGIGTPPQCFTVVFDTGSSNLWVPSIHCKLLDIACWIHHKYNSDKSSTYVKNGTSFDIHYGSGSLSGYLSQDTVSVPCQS
Target sequence in this assay (P07339 169-412 limits assumed): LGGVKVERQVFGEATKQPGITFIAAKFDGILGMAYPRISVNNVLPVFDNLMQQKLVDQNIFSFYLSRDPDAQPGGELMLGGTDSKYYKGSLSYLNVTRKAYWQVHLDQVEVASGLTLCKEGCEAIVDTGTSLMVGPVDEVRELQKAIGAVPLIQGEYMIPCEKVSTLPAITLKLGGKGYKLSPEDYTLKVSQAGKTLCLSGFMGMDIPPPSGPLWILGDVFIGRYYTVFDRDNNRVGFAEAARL

[4] = target: T4, ~30 kDa band (CatD heavy chain) in ARPE-19 cells (Homo sapiens, UniProt P07339); test: Live cell PF-7802 labelling, in-gel fluorescence analysis; type: cell-based; details: pretreatment 2 µM inhibitor, PF-7802 100 nM
T4 construct: host or cells: ARPE-19

[5] = test system: CatD protein level in ARPE-19 cells; test: Chronic ARPE-19 inhibitor treatment and CatD ELISA; type: cell-based, human; details: 300 pM-10 μM, 7 days
Experimental: ARPE-19 cells were plated in 96-well plates at a density of 2 × 10^4 cells per well. After 12–24 h, media was removed and replaced with media containing test compounds at the indicated concentration. After 7 days of compound incubation (no media changes or additional test compound treatments), conditioned media was collected for a cytotoxicity assay, and attached cells were washed once with DPBS and then lysed on ice with gentle pipetting followed by a 20 min extraction in 50 μl in ice-cold RIPA buffer (50 mM Tris, pH 7.4, 150 mM NaCl, 1 mM EDTA, 1% NP40, 1% Na deoxycholate, 0.1% SDS) supplemented with 1 mM PMSF (Sigma) and EDTA-free protease inhibitor cocktail tablets (Roche). Cytotoxicity was determined from conditioned media using an LDH assay (Pierce 88954) as per the manufacturer's protocol. CatD protein levels were measured by ELISA (EMD Millipore Q1A29) as per the manufacturer's protocol. For both the LDH assay and the ELISA, absorbance was read on an EnVision plate reader (PerkinElmer). Data were normalized to DMSO and plotted in GraphPad Prism.

[6] = test system: retinal pigment epithelium (RPE); design: method as in PMID 22090477, PMID 25361751; details: cited from earlier work
[7] = test system: retinal pigment epithelium (RPE); test: Exploratory toxicology, ocular toxicity by retinal histology in rats; type: in vivo; details: rat
Experimental: (§2) Wistar Han rats (obtained from Charles River, 125–300 g, 6–9 weeks old at study start, see Supplementary Table 7 for number of males and females) received daily oral dosing of test compounds or vehicle at the indicated concentrations for 7–29 days as indicated. The doses were prepared in a solution of 0.5% methylcellulose and 0.2% polysorbate 80, or 0.5% methylcellulose and hydroxypropyl methylcellulose acetate succinate (high fine grade) and delivered in a volume of 10 ml kg^−1 per day. Blood samples for bioanalytical analysis were collected in K2EDTA tubes via jugular vessel. Plasma was isolated after centrifugation and stored at −20 °C prior to analysis. Animals were given an additional dose the day after the end of the study (days 8, 15 or 30 for 7, 14 and 29 day studies, respectively) then killed by gas anaesthesia (isoflurane) followed by exsanguination ∼3 h after this final dose.

[8] = target: T1, BACE1; test: BACE1 biochemical cellular assay (sAPPβ ELISA in H4 cells overexpressing APP695); type: cell-based; design: endogenous in cells; host or cells: H4 human neuroglioma cells overexpressing human APP695; details: for BACE1 potency increase in live cells: BACE1 enzyme IC50 versus BACE1 cellular IC50
Experimental: Cellular inhibition of BACE1 was determined by measuring sAPPβ, the primary cleavage product of BACE-1, in H4 human neuroglioma cells overexpressing the wild-type human APP695. […] The colorimetric reaction was read by an EnVision plate reader (PerkinElmer).
Target sequence in this assay (P56817 46-501): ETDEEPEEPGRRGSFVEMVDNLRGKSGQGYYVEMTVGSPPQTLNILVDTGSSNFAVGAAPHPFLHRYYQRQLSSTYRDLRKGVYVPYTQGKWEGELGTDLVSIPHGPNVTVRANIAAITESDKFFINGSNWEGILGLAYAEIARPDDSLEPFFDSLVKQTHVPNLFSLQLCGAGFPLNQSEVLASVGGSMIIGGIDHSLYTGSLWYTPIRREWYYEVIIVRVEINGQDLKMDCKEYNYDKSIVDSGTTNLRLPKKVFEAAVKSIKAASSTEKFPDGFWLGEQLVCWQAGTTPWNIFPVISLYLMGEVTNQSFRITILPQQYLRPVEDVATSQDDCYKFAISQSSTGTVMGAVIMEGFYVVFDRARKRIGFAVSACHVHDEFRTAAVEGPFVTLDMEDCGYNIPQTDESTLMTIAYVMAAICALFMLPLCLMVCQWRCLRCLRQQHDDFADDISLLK

[9] = pKa determination by multiplexed capillary electrophoresis; type: physicochemical; details: aqueous buffers
Experimental: All pKa values were determined at Analiza, Inc. by multiplexed capillary electrophoresis (mCE) using 96-capillary array electrophoresis instrument to measure the effective mobility (migration time of the compound in relation to neutral marker, DMSO) with ultraviolet detection. The pKa values were obtained from the ionization curves by plotting the compound effective mobility (24 points across pH range 1.7–11.2) versus pH. All pKa results were determined using aqueous buffers with method average absolute error 0.12.

[10] = Plasma exposure (average unbound plasma concentration) in rats; type: in vivo, rat; details: rat; for concentration at 7 days: Wistar Han, oral; for concentration at 7 days / concentration at 29 days: average unbound plasma concentration, read-out: Avg Cp,u parent; for concentration at 29 days / Avg Cp,u metabolite: 14 days; for Avg Cp,u metabolite: metabolite of the dosed compound
Experimental: as §2
Plasma samples were analysed after protein precipitation by treating 20 μl of sample matrix with 200 μl of acetonitrile containing internal standard. All samples were centrifuged at 3,000 r.p.m. for 5 min. Then 100 μl of supernatant was transferred to a clean plate and evaporated to dryness under N2. Samples were reconstituted in 200 μl of 80:20 (v:v) acetonitrile:water. Samples were analysed on Waters Acquity UPLC connected to AB Sciex API5500 QTrap MS/MS.
Plasma protein binding was determined in the Rapid Equilibrium Device (RED, Thermo Scientific). Frozen plasma was warmed to 37 °C and adjusted to pH 7.4. The plasma was spiked with compound to a final concentration of 2 μM. Aliquots of spiked plasma were added to the donor (red) side, followed by addition of buffer to the receiver (white) side. The RED device was covered with a gas-permeable membrane and agitated within a humidified CO2 incubator (5% CO2, 75% relative humidity). Plasma (15 μl) and buffer (45 μl) were sampled from each insert and were matrix-matched with appropriate blank matrix (plasma with 45 μl buffer and buffer with 15 μl of plasma). Samples were protein-precipitated with acetonitrile containing internal standard, and the resulting supernatant was analysed by LC-MS/MS.

[11] = target: T3, CatD; test: CatD cellular assay (competition of PF-7802 photolabelling in live ARPE-19 cells); type: cell-based; design: host or cells: ARPE-19; details: for CatD potency increase in live cells: CatD enzyme IC50 versus CatD cellular IC50
Experimental: ARPE-19 cells were plated at a density of 1.2 × 10^6 cells per well in six-well dishes 12–24 h before probe labelling. Culture media was removed completely and replaced with 1 ml of the appropriate serum-free media (no supplements) per well. Cells were then pretreated with test compounds at the indicated concentrations for 30 min (0.5% DMSO, 37 °C, 5% CO2). […] Ultraviolet irradiation was performed without culture plate lids for efficient irradiation, and samples were slowly rotated to prevent evaporation. After ultraviolet irradiation, cells were washed twice with Dulbecco's phosphate-buffered saline (DPBS), scraped into DPBS, centrifuged and stored as pellets at −80 °C.
Cells were lysed with sonication on ice in 70 μl DPBS and protein concentrations were determined using a BCA assay (Pierce). Total protein concentrations were then normalized to 1 mg ml^−1 in 50 μl total volume before addition of 5.5 μl click chemistry mix (1 : 3 : 1 : 0.5 volume of 50 mM CuSO4 (Sigma) in H2O : 1.7 mM TBTA (Sigma) in 4:1 t-BuOH:DMSO : 50 mM TCEP (Hampton Research) in dPBS : 10 mM TAMRA-azide (Lumiprobe) in DMSO - mixed immediately before use. Reagent solutions can be premade and stored at 4 °C except for TCEP, which should be made immediately before use). […] All fluorescence gels are presented in greyscale.
Target sequence in this assay (P07339 169-412 limits assumed): as the sequence (P07339 169-412 limits assumed) above
Target sequence in this assay (P07339 65-162 limits assumed): as the sequence (P07339 65-162 limits assumed) above

[12] = In vivo metabolism of BACE1 inhibitors in rats; design: species or system rat
[13] = 14 days, 110 mg kg-1 once daily

T4 sequence (P07339 169-412 limits assumed): as the sequence (P07339 169-412 limits assumed) above
T4 sequence (P07339 65-162 limits assumed): as the sequence (P07339 65-162 limits assumed) above

BACE1 activity [1]: no BACE1 activity
BACE2 activity [2]: no activity
Inhibition of purified CatD ([3]; purified CatD biochemical substrate assay): potent; also recorded: nanomolar potency
Competition of PF-7802 labelling of the 30 kDa band [4]: blocked labelling of the 30 kDa band
SMILES: CNC1CCN(C(=O)C[C@@H](Cc2ccccc2)C(=O)N[C@@H](CSC)C(=O)N[C@@H](CC2CCCCC2)[C@@H](O)C(=O)OC(C)C)CC1 [CP-108671, reference compound]
CatD protein accumulation (ELISA) [5]: could be reproduced

SMILES: C[C@@]1(c2cc(-c3cncnc3)c(F)cc2F)CCSC(N)=N1 [LY2811376, reference compound]
Ocular toxicity in preclinical animal models [6]: ocular toxicity in preclinical animal models
Male ocular toxicity incidence (positive or negative animals / total evaluated) ([7]; 7 days, 25 mg kg-1 once daily): 1/4
Male ocular toxicity outcome ([7]; 7 days, 25 mg kg-1 once daily): Pos
Male ocular toxicity incidence (positive or negative animals / total evaluated) ([7]; 7 days, 75 mg kg-1 once daily): 4/4
Male ocular toxicity outcome ([7]; 7 days, 75 mg kg-1 once daily): Pos
Competition of PF-7802 labelling of the 30 kDa band [4]: blocked labelling of the 30 kDa band
BACE1 potency increase in live cells [8]: 18 x
pKa ([9]; read-out: pKa): 8.9
concentration at 7 days ([10]; 25 mg kg-1 once daily): 741 nM
concentration at 7 days ([10]; 75 mg kg-1 once daily): 4370 nM
CatD potency difference between cell-free enzyme and cellular assays [11]: 95 fold
CatD potency increase in live cells [11]: 95 x

SMILES: Cc1coc([C@H]2C[C@H]3[C@@H](CF)SC(N)=N[C@@]3(c3ccc(F)cc3F)CO2)n1 [PF-1283]
IC50 ([1]; purified human enzyme, fluorescence polarization, peptide substrate): 120 nM
IC50 ([2]; purified human enzyme, fluorescence polarization): 95 nM
IC50 ([3]; purified human enzyme, fluorescence polarization, substrate-based): 13000 nM
Female ocular toxicity incidence (positive or negative animals / total evaluated) ([7]; 14 days, 45 mg kg-1 once daily): 3/3
Female ocular toxicity outcome ([7]; 14 days, 45 mg kg-1 once daily): Neg (negative (neg) if there was no ocular abnormality observed)
Male ocular toxicity incidence (positive or negative animals / total evaluated) ([7]; 14 days, 45 mg kg-1 once daily): 3/3
Male ocular toxicity outcome ([7]; 14 days, 45 mg kg-1 once daily): Neg (negative (neg) if there was no ocular abnormality observed)
Female ocular toxicity incidence (positive or negative animals / total evaluated) [7, 13]: 1/3
Female ocular toxicity outcome [7, 13]: Pos
Male ocular toxicity incidence (positive or negative animals / total evaluated) [7, 13]: 3/3
Male ocular toxicity outcome [7, 13]: Neg (negative (neg) if there was no ocular abnormality observed)
Stability to oxidative metabolism [12]: significantly more stable to oxidative metabolism; also recorded: significantly less susceptible to oxidative metabolism
BACE1 potency increase in live cells [8]: 12 x
IC50 ([8]; sAPPβ ELISA, H4 neuroglioma cells with human wild-type APP): 10 nM
pKa [9]: 7.0
concentration at 29 days ([10]; 45 mg kg-1 once daily): 109 nM
Avg Cp,u metabolite ([10]; 45 mg kg-1 once daily): 352 nM
concentration at 29 days ([10]; 110 mg kg-1 once daily): 793 nM
Avg Cp,u metabolite ([10]; 110 mg kg-1 once daily): 859 nM
CatD potency increase in live cells [11]: 54 x
IC50 ([11]; live ARPE-19 cells, PF-7802 photoprobe 100 nM, 30 min): 240 nM
